In ChEMBL document CHEMBL5465560, “Selectivity Literature for EUbOPEN Chemogenomic Library” (2024):
One block for each compound: values may come before it.

Experiments:
[1] = molecular target: Angiopoietin-1 receptor (Homo sapiens) (UniProt Q02763); assay: Selectivity interaction (KinomeScan (DiscoverX)) EUB0000666a TEK; conditions: at 10 µM
[2] = molecular target: Tyrosine-protein kinase JAK2 (Homo sapiens, UniProt O60674); assay: Selectivity interaction (Kinase panel (33PanQinase(R) Activity Assay)) EUB0000877a JAK2
Chain of Tyrosine-protein kinase JAK2 (O60674 whole entry, canonical isoform): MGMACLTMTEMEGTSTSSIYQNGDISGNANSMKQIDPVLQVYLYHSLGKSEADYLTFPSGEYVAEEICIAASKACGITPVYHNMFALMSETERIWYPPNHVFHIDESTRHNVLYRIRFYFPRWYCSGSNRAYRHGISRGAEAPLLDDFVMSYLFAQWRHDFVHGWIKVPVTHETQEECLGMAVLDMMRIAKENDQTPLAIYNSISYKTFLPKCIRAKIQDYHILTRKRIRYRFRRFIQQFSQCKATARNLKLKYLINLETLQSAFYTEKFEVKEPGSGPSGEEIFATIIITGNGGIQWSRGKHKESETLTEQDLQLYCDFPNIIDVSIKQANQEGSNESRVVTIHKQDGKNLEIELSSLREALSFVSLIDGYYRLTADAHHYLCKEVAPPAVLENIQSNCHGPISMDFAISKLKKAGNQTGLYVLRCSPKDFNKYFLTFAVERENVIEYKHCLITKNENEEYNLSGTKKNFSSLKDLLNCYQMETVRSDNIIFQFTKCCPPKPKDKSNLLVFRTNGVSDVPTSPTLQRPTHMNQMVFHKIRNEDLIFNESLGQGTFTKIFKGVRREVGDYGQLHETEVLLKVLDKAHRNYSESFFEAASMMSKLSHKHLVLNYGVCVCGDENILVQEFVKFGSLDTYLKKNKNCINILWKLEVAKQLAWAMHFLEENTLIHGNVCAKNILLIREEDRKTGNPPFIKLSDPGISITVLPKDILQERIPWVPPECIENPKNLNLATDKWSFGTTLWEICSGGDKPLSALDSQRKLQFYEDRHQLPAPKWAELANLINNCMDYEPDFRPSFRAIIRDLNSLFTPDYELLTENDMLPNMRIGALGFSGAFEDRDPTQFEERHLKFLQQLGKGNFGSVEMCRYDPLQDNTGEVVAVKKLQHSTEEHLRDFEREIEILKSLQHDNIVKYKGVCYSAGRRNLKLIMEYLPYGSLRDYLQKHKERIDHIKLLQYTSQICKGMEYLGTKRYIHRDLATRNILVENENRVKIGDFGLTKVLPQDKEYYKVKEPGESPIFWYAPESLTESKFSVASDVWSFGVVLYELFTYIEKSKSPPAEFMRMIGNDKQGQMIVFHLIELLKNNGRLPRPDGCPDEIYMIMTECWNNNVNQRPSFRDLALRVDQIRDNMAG

[3] = molecular target: Phosphatidylinositol 4,5-bisphosphate 3-kinase catalytic subunit gamma isoform (Homo sapiens) (UniProt P48736); assay: Selectivity interaction (ActivX KiNativ screen (kinase selectivity in THP-1 cell lysates)) EUB0000639a PIK3CG; format: subcellular; conditions: lysate
Chain of Phosphatidylinositol 4,5-bisphosphate 3-kinase catalytic subunit gamma isoform (Homo sapiens) (P48736 whole entry, looked up, canonical isoform): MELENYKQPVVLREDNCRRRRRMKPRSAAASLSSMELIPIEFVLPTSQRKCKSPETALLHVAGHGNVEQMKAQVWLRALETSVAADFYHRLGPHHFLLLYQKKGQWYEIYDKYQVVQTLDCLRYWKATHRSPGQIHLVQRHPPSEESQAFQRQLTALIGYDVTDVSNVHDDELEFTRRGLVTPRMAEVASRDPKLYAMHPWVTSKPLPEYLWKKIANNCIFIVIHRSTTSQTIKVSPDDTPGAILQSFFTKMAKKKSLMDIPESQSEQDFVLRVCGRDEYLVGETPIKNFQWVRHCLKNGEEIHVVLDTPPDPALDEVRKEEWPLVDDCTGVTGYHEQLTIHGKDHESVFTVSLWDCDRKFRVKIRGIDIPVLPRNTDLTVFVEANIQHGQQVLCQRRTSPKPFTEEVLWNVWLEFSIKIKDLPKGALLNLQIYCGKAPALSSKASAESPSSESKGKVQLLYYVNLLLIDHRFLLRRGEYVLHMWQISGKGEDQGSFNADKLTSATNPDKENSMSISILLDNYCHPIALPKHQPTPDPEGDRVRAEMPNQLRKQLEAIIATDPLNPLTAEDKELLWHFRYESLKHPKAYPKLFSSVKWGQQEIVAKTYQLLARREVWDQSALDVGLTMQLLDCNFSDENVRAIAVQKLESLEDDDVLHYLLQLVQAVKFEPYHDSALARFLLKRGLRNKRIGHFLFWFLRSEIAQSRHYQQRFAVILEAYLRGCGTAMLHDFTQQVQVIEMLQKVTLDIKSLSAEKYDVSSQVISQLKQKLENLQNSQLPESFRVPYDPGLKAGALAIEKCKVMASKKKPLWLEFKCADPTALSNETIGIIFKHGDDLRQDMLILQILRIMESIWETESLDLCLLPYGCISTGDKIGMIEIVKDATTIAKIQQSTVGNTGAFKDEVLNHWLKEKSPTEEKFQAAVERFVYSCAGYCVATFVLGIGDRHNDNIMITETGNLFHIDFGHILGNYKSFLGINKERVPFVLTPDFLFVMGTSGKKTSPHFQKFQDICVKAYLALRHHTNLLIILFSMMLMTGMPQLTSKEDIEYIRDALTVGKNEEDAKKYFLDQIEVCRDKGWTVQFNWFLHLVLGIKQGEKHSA

[4] = molecular target: Activin receptor type-1-like (Homo sapiens) (UniProt P37023); assay: Selectivity interaction (ProQinase) EUB0000171b ACVRL1
Chain of Activin receptor type-1-like (Homo sapiens) (P37023 whole entry): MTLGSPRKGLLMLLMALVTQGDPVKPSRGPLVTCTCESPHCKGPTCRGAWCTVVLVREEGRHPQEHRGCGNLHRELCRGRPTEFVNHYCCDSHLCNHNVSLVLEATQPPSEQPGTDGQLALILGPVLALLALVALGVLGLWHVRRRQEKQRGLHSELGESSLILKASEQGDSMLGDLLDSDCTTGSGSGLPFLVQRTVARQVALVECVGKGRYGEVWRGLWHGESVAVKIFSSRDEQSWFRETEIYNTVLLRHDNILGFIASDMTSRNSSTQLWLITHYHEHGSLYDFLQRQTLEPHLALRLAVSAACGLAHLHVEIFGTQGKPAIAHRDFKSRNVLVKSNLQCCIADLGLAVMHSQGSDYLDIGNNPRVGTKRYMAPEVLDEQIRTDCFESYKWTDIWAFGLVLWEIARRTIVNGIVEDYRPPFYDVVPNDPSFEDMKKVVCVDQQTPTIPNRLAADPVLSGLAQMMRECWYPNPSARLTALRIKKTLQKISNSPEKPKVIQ

[5] = molecular target: 5'-AMP-activated protein kinase catalytic subunit alpha-1 (Homo sapiens, UniProt Q13131); assay: Selectivity interaction (KinomeScan (DiscoverX)) EUB0000595a PRKAA1; conditions: at 10 µM
Chain of 5'-AMP-activated protein kinase catalytic subunit alpha-1 (Q13131 whole entry, looked up): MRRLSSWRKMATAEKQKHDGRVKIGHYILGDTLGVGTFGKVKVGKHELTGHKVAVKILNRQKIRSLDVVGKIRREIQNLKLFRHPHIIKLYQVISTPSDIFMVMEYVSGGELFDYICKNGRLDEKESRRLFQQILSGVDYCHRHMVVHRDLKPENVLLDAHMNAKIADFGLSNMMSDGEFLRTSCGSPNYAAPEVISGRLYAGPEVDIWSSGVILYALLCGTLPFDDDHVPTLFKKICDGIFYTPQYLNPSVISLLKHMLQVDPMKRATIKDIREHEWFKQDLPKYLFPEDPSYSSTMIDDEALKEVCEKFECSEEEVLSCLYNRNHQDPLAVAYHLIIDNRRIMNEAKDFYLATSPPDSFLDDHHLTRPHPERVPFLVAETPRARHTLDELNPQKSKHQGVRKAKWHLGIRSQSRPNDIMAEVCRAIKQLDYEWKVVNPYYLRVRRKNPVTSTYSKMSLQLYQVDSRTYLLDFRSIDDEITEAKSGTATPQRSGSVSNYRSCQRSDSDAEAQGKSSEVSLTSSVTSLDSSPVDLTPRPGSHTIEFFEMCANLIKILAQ

[6] = molecular target: T1, Inhibitor of nuclear factor kappa-B kinase subunit epsilon (Homo sapiens) (UniProt Q14164); assay: Selectivity interaction (KinomeScan (DiscoverX)) EUB0001049a IKBKE; conditions: at 1 µM
T1 sequence (whole entry): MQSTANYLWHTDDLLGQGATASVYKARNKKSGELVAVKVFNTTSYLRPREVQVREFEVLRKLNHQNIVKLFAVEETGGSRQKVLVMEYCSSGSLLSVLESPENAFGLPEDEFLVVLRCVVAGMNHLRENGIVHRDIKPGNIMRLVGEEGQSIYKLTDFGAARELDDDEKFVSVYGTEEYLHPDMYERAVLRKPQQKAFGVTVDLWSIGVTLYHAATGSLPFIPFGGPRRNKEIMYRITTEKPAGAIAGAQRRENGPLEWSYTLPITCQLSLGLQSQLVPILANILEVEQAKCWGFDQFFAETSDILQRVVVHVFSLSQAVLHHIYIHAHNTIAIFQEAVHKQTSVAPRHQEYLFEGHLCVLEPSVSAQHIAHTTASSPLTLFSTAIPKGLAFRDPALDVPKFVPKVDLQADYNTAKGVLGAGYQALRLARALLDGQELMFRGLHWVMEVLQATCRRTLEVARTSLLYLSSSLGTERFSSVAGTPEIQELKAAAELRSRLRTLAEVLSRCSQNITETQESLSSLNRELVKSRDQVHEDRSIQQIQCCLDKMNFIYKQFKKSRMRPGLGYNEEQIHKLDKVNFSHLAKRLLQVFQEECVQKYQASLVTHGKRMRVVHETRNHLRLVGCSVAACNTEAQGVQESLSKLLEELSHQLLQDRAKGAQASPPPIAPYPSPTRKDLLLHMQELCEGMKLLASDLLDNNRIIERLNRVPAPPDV

[7] = molecular target: T2, Serine/threonine-protein kinase BRSK1 (Homo sapiens) (UniProt Q8TDC3); assay: Selectivity interaction (KinomeScan (DiscoverX)) EUB0001049a BRSK1; conditions: at 1 µM
T2 sequence (whole entry): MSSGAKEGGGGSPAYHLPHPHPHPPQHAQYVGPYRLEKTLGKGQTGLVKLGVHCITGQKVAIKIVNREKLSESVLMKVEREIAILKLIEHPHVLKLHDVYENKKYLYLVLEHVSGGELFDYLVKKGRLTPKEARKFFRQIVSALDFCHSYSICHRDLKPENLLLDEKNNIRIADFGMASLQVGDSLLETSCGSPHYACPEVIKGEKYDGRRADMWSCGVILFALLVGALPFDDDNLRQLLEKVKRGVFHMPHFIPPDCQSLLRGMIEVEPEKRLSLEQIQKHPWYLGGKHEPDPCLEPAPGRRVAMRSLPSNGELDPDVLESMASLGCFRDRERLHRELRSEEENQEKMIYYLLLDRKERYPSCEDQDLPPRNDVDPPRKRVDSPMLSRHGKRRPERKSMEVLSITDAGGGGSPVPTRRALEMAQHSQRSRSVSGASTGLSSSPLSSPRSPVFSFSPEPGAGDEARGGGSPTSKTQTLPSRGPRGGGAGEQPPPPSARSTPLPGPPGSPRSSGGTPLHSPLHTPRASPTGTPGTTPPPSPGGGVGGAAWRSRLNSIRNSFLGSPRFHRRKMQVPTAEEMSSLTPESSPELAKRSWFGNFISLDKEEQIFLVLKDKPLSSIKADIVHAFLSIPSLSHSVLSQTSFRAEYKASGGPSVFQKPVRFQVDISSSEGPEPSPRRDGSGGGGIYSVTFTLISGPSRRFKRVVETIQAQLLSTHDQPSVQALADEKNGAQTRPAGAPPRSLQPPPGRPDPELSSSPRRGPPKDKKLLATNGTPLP

[8] = molecular target: Mitogen-activated protein kinase 7 (Homo sapiens) (UniProt Q13164); assay: Selectivity interaction (KinomeScan (DiscoverX)) EUB0001079a MAPK7; conditions: at 1 µM
[9] = molecular target: Phosphatidylinositol 4-phosphate 3-kinase C2 domain-containing subunit beta (Homo sapiens) (UniProt O00750); assay: Selectivity interaction (Kinase panel (KiNativ target engagement assay in Jurkat cells)) EUB0001635a PIK3C2B; format: cell-based; conditions: Selectivity number of off-targets 0.0, Selectivity number of targets 233.0, Source Knowledge https://www.sciencedirect.com/science/article/pii/S2451945619300674?via%3Dihub, at 1 µM
Chain of Phosphatidylinositol 4-phosphate 3-kinase C2 domain-containing subunit beta (Homo sapiens) (O00750 whole entry, the tested form may be a part): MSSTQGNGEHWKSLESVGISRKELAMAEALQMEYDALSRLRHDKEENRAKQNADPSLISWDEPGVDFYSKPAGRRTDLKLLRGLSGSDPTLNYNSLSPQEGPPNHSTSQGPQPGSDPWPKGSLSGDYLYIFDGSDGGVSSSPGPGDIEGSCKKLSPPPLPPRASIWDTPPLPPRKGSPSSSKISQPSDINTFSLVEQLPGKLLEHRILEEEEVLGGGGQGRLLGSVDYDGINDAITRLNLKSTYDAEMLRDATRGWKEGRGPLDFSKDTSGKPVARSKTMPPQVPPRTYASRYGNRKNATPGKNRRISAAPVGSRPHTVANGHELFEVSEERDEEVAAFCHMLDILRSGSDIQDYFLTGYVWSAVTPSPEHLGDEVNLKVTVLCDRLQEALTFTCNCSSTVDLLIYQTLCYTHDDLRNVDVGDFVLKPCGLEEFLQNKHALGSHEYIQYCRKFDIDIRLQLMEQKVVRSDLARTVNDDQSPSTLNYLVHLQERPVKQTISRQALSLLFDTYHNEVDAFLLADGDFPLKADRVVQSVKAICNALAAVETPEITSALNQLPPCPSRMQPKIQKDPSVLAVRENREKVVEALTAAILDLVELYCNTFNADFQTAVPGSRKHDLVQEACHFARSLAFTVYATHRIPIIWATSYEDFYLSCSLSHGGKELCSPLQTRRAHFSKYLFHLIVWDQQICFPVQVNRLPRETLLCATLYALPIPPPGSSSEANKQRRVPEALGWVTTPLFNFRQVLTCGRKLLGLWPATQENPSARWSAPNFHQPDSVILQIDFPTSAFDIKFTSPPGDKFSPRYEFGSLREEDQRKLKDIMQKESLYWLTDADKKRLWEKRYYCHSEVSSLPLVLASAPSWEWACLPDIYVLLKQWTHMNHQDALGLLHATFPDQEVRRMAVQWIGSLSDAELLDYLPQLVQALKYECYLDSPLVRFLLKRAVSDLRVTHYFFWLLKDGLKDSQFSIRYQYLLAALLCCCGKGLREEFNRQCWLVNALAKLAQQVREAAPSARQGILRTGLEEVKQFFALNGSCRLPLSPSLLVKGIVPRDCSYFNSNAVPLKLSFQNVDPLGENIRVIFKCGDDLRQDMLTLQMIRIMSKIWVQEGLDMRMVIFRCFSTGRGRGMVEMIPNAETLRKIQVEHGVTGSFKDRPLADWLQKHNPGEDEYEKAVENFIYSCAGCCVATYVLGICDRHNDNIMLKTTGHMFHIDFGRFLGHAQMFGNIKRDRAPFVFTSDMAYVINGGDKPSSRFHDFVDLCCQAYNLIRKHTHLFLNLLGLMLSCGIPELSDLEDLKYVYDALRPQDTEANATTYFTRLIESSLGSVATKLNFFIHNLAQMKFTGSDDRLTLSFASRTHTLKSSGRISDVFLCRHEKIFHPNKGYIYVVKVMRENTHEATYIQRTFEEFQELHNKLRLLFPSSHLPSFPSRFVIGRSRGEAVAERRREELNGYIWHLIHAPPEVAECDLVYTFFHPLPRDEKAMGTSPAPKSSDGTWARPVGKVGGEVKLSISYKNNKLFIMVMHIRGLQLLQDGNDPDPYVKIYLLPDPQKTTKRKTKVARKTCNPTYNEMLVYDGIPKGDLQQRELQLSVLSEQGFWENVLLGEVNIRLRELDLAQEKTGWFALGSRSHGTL

[10] = molecular target: AP2-associated protein kinase 1 (Homo sapiens, UniProt Q2M2I8); assay: Selectivity interaction (KinomeScan (DiscoverX)) EUB0000618a AAK1; conditions: at 10 µM
[11] = molecular target: T3, Tyrosine-protein kinase Tec (Homo sapiens) (UniProt P42680); assay: Selectivity interaction (KinomeScan (DiscoverX)) EUB0000618a TEC; conditions: at 10 µM
T3 sequence (whole entry): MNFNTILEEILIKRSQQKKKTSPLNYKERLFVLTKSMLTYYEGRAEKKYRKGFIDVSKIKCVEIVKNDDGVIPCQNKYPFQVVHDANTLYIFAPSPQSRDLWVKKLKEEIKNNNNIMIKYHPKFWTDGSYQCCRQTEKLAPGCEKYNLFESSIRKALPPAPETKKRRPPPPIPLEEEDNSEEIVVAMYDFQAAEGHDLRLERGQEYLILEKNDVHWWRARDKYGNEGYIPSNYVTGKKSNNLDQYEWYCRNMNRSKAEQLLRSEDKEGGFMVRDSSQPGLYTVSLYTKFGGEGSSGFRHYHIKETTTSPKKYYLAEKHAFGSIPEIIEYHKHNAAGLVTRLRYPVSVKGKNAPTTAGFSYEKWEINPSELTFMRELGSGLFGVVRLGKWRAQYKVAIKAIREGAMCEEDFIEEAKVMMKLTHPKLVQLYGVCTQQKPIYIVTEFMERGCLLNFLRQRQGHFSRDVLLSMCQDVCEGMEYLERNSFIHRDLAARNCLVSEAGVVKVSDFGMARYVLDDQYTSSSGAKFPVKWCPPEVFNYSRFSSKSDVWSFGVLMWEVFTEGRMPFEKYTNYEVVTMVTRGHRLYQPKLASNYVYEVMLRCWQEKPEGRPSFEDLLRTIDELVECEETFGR

SMILES: O=C(NOC[C@H](O)CO)c1ccc(F)c(F)c1Nc1ccc(I)cc1F
- % of control [1]: 100%

- IC50 [2]: > 10 µM
SMILES: CCC(=O)N1CC[C@H](Nc2ncnc3c2CN(c2cnc(OC)c(C(F)(F)F)c2)CC3)C1 [LENIOLISIB]

- % of inhibition ([3]; at 0.01 µM): 6.3%
- % of inhibition ([3]; at 0.04 µM): 12%
- % of inhibition ([3]; at 0.2 µM): 7.4%
- % of inhibition ([3]; at 1 µM): 13.3%
- % of inhibition ([3]; at 5 µM): 2.6%
SMILES: CC[C@@H]1[C@H](F)C(=O)N[C@@H]1COc1nccc2cc(C(N)=O)c(OC)cc12 [ZIMLOVISERTIB]

- % of control ([4]; at 1 µM): 74%
- % of control ([4]; at 5 µM): 52%
SMILES: C=CC(=O)Nc1cccc(C(=O)Nc2ccc(Nc3cc(-c4[nH]c(SC)nc4C)ccn3)cc2)c1

SMILES: COCC(=O)NC/C=C/c1ccc2ncnc(Nc3ccc(Oc4ccc(C)nc4)c(C)c3)c2c1 [CP-724714]
- % of control [5]: 89%

SMILES: COc1cc(Nc2nc(C)cc(-c3cnn4nc(OC)ccc34)n2)cc(C(F)(F)F)c1
- % of control [6]: 83%
- % of control [7]: 86%

SMILES: Nc1cnc(N2CCc3cc(S(=O)(=O)Nc4c(F)cc(Cl)cc4F)cc(N4CCCC4=O)c32)nc1 [TP-020n]
- % of control [8]: 100%

SMILES: C=CC(=O)Nc1ccc(C(=O)Nc2[nH]nc3c2CN(C(=O)N[C@H](CN(C)C)c2ccccc2)C3(C)C)cc1
- % of engagement [9]: -18.6%

SMILES: O[C@H]1CC[C@H](Nc2ncc3nc(Nc4c(F)cc(F)cc4F)n([C@H]4CCOC4)c3n2)CC1
- % of control [10]: 100%
- % of control [11]: 100%
